Measured values published in patent US20130217664A1, “NOVEL COMPOUNDS USEFUL FOR THE TREATMENT OF DEGENERATIVE AND INFLAMMATORY DISEASES” (priority 2012, published 2013).
Read-outs that look alike come from different tables or passages of the source.

Legend:
[1] = biological target: T1, human JAK3 (Homo sapiens, UniProt P52333); assay: JAK3 inhibition assay; type: biochemical; settings: recombinant human JAK3 catalytic domain; polyGT substrate
T1 construct: catalytic domain (amino acids 781-1124; catalog number PV3855); purchased Invitrogen PV3855
Method in brief: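 Radiometric kinase assay: 0.5 ng JAK3 with 2.5 μg polyGT in Tris pH 7.5/MgCl2 buffer, 1 μM ATP plus 0.25 μCi 33P-γ-ATP, 1% DMSO, 45 min at 30 °C, stopped with phosphoric acid.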

[2] = biological target: T2, human TYK2 (Homo sapiens, UniProt P29597); assay: TYK2 inhibition assay; type: biochemical; settings: recombinant human TYK2 catalytic domain, polyGT substrate
T2 construct: catalytic domain (amino acids 871-1187; catalog number 08-147); purchased Carna Biosciences 08-147
T2 sequence (P29597 871-1187): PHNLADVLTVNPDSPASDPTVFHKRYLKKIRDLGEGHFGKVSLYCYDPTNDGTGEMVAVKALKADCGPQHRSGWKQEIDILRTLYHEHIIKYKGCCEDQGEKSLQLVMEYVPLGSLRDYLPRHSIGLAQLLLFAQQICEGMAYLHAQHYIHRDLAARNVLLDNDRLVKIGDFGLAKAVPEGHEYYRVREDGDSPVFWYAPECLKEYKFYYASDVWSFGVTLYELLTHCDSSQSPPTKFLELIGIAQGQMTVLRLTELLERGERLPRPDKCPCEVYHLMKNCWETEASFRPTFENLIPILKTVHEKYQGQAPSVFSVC
Method in brief: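 Radiometric kinase reaction run 90 min at 30 °C, stopped with phosphoric acid, washed and scintillation-counted.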

[3] = test system: CTLL-2 cell line; assay: CTLL2 viability assay; type: cell-based; settings: Mus musculus, IL-2 dependent CTLL2 viability, 24 h, ATP-lite
Source text: The protocol describes the methods to analyse the activity of compounds on their ability to sustain the IL2-dependent viability of CTLL2.
Final DMSO concentration was 0.1%.

[4] = biological target: T3, human JAK2 (Homo sapiens, UniProt O60674); assay: JAK2 inhibition assay (polyGT substrate / Ulight-JAK1 peptide); type: biochemical; settings: recombinant human JAK2 catalytic domain; polyGT or Ulight-JAK1 peptide assay
T3 construct: catalytic domain (amino acids 808-1132; catalog number PV4210); GST; purchased Invitrogen PV4210
Method in brief: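 Two JAK2 formats: a ^33P-ATP polyGT assay (1 μM cold ATP, 90 min, 30° C., cpm read-out) and a Ulight-JAK1 peptide assay read by Europium-anti-phosphotyrosine fluorescence after 60 min at room temperature.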

[5] = biological target: T4, human JAK1 (Homo sapiens, UniProt P23458); assay: JAK1 inhibition assay (polyGT substrate / Ulight-JAK1 peptide); type: biochemical; settings: recombinant human JAK1 catalytic domain; polyGT or Ulight-JAK1 peptide assay
T4 construct: catalytic domain, amino acids 866-1154; catalog number PV4774; purchased Invitrogen PV4774
Method in brief: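 Signal scaled between vehicle and 10 μM staurosporine. Radiometric polyGT reactions ran 45 min at 30 °C, counted after phosphoric-acid stop. Ulight peptide reactions ran 60 min at room temperature, fluorescence read after adding Eu-PT66 detection mix with EDTA.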

[6] = test system: pSTAT1(2)-luciferase reporter in HeLa cells triggered with human OSM; assay: JAK-STAT signalling assay; type: cell-based; settings: Homo sapiens, HeLa, read-out: JAK-STAT IC50
Method in brief: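 Compound added 60 min before 33 ng/mL (final) human OSM; after overnight stimulation at 37 °C, luciferase signal from a transiently transfected pSTAT1(2) reporter in HeLa cells was read, with LacZ as internal control. EC50 derived from percent-inhibition dose-response curves.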

[7] = HeLa cells, pSTAT1(2)-luciferase reporter, human OSM 33 ng/mL

T3 sequence (O60674 808-1132): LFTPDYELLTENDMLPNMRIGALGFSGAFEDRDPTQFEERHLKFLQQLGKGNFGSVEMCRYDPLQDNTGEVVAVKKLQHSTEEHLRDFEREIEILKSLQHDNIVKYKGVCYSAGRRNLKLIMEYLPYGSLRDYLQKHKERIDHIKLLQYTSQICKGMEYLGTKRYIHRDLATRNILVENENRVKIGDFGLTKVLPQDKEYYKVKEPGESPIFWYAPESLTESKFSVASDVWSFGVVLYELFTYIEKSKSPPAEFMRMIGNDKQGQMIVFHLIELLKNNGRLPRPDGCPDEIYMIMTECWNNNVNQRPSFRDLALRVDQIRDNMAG
T4 sequence (P23458 866-1154): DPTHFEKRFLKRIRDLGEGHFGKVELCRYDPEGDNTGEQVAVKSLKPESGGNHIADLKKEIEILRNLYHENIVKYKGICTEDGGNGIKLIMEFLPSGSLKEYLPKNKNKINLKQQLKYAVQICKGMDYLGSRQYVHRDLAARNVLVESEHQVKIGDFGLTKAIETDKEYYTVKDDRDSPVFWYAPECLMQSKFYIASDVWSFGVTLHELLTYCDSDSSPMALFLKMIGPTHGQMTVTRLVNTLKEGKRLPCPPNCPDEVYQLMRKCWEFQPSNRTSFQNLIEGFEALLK
T1 sequence (P52333 781-1124): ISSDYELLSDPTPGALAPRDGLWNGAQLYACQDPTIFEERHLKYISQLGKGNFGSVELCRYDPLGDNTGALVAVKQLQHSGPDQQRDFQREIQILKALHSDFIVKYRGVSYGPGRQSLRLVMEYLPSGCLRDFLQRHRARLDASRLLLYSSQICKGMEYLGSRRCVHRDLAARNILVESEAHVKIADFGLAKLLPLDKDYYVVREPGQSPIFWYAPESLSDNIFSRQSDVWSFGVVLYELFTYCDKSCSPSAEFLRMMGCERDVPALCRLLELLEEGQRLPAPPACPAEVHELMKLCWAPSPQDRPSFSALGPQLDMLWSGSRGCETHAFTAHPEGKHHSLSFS

Compound | IC50 [1] [nM] | IC50 [2] [nM] | IC50 [3] [nM] | IC50 [4] [nM] | IC50 [5] [nM] | IC50 [6, 7] [nM] | IC50 [6] [nM]
CCc1cc(N2CC[C@@H](F)C2)ncc1N(C)c1cc2c(cn1)ncn2C [Compound 414, [4-Ethyl-6-((R)-3-fluoro-pyrrolidin-1-yl)-pyridin-3-yl]-methyl-(1-methyl-1H-imidazo[4,5-c]pyridin-6-yl)-amine] | 101 to 500 | 0.01 to 100 | > 1000 | 0.01 to 100 | 0.01 to 100 | – | –
CCc1cc(CNS(=O)(=O)N2CCC(F)(F)C2)ccc1N(C)c1cc2c(cn1)ncn2C [Compound 425, 3,3-Difluoro-pyrrolidine-1-sulfonic acid 3-ethyl-4-[methyl-(1-methyl-1H-imidazo[4,5-c]pyridin-6-yl)-amino]-benzylamide] | 101 to 500 | 101 to 500 | > 1000 | 0.01 to 100 | 0.01 to 100 | – | –
CCc1cc(C(C#N)N2CCC(S(C)(=O)=O)CC2)ccc1N(C)c1cc2c(cn1)ncn2C (centres unmarked) [Compound 452, {3-Ethyl-4-[methyl-(1-methyl-1H-imidazo[4,5-c]pyridin-6-yl)-amino]-phenyl}-(4-methanesulfonyl-piperidin-1-yl)-acetonitrile] | 0.01 to 100 | 0.01 to 100 | 501 to 1000 | 0.01 to 100 | 0.01 to 100 | – | –
CCc1cc(C(C#N)N2CCC(C#N)C2)ccc1N(C)c1cc2c(cn1)ncn2C (centres unmarked) [Compound 445, 1-(Cyano-{3-ethyl-4-[methyl-(1-methyl-1H-imidazo[4,5-c]pyridin-6-yl)-amino]-phenyl}-methyl)-pyrrolidine-3-carbonitrile] | 101 to 500 | 0.01 to 100 | > 1000 | 0.01 to 100 | 0.01 to 100 | – | –
CCc1cc(CN2CCNC(=O)C2)ccc1N(C)c1cc2c(cn1)ncn2C [Compound 421, 4-{3-Ethyl-4-[methyl-(1-methyl-1H-imidazo[4,5-c]pyridin-6-yl)-amino]-benzyl}-piperazin-2-one] | 501 to 1000 | 0.01 to 100 | > 1000 | 101 to 500 | 0.01 to 100 | – | –
CCc1cc(CNS(=O)(=O)N2CCOCC2)ccc1N(C)c1cc2c(cn1)ncn2C [Compound 426, Morpholine-4-sulfonic acid 3-ethyl-4-[methyl-(1-methyl-1H-imidazo[4,5-c]pyridin-6-yl)-amino]-benzylamide] | 101 to 500 | 101 to 500 | > 1000 | 0.01 to 100 | 0.01 to 100 | – | –
CCc1cc(C(C#N)N2CCC(C#N)CC2)ccc1N(C)c1cc2c(cn1)ncn2C (centres unmarked) [Compound 435, 1-(Cyano-{3-ethyl-4-[methyl-(1-methyl-1H-imidazo[4,5-c]pyridin-6-yl)-amino]-phenyl}-methyl)-piperidine-4-carbonitrile] | 101 to 500 | 0.01 to 100 | > 1000 | 0.01 to 100 | 0.01 to 100 | – | –
CCc1cc(C(C#N)N2CCC[C@@H]2COC)ccc1N(C)c1cc2c(cn1)ncn2C (stereo partly drawn) [Compound 439, {3-Ethyl-4-[methyl-(1-methyl-1H-imidazo[4,5-c]pyridin-6-yl)-amino]-phenyl}-((R)-2-methoxymethyl-pyrrolidin-1-yl)-acetonitrile] | 501 to 1000 | 0.01 to 100 | > 1000 | 101 to 500 | 0.01 to 100 | – | –
CCc1cc(C2CCCCC2)ncc1N(C)c1cc2c(cn1)ncn2C [Compound 432, (6-Cyclohexyl-4-ethyl-pyridin-3-yl)-methyl-(1-methyl-1H-imidazo[4,5-c]pyridin-6-yl)-amine] | > 1000 | 101 to 500 | > 1000 | 101 to 500 | 0.01 to 100 | – | –
CCc1cc(-c2cnc(OCC#N)nc2)ccc1N(C)c1cc2c(cn1)ncn2C [Compound 217, 2-(5-(3-ethyl-4-(methyl(1-methyl-1H-imidazo[4,5-c]pyridin-6-yl)amino)phenyl)pyrimidin-2-yloxy)acetonitrile] | > 1000 | 101 to 500 | – | – | 0.01 to 100 | > 1000 | –
CCc1cc(C2=CCN(C(=O)OCC#N)CC2)ccc1N(C)c1cc2c(cn1)ncn2C [Compound 216, Cyanomethyl 4-(3-ethyl-4-(methyl(1-methyl-1H-imidazo[4,5-c]pyridin-6-yl)amino)phenyl)-5,6-dihydropyridine-1(2H)-carboxylate] | 101 to 500 | 0.01 to 100 | – | – | 0.01 to 100 | – | > 1000
CCc1cc(CNC(=O)NC#N)ccc1N(C)c1cc2c(cn1)ncn2C [Compound 258, 1-{3-Ethyl-4-[methyl-(1-methyl-1H-imidazo[4,5-c]pyridin-6-yl)-amino]-benzyl}-3-cyano-urea] | 101 to 500 | 101 to 500 | – | – | 0.01 to 100 | – | > 1000
CCc1cc(C2=CCN(C(=O)CCC#N)CC2)ccc1N(C)c1cc2c(cn1)ncn2C [Compound 196, 4-(4-(3-ethyl-4-(methyl(1-methyl-1H-imidazo[4,5-c]pyridin-6-yl)amino)phenyl)-5,6-dihydropyridin-1(2H)-yl)-4-oxobutanenitrile] | 101 to 500 | 0.01 to 100 | – | – | 0.01 to 100 | 501 to 1000 | –
CCc1cc(-c2cnn(Cc3cccc(OC)c3)c2)ccc1N(C)c1cc2c(cn1)ncn2C [Compound 236, N-(2-ethyl-4-(1-(3-methoxybenzyl)-1H-pyrazol-4-yl)phenyl)-N,1-dimethyl-1H-imidazo[4,5-c]pyridin-6-amine] | 0.01 to 100 | 0.01 to 100 | – | – | 0.01 to 100 | 1 to 500 | –
CCc1cc(C2=CCN(S(=O)(=O)CC#N)CC2)ccc1N(C)c1cc2c(cn1)ncn2C [Compound 247, 2-(4-(3-ethyl-4-(methyl(1-methyl-1H-imidazo[4,5-c]pyridin-6-yl)amino)phenyl)-5,6-dihydropyridin-1(2H)-ylsulfonyl)acetonitrile] | 0.01 to 100 | 0.01 to 100 | – | – | 0.01 to 100 | 1 to 500 | –
CCc1cc(-c2nc(C)no2)ccc1N(C)c1cc2c(cn1)ncn2C [Compound 178, N-(2-Ethyl-4-(3-methyl-1,2,4-oxadiazol-5-yl)phenyl)-N,1-dimethyl-1H-imidazo[4,5-d]pyridin-6-amine] | > 1000 | 101 to 500 | – | – | 0.01 to 100 | 501 to 1000 | –
CCc1cc(-c2ccc(C)nc2)ccc1N(C)c1cc2c(cn1)ncn2C [Compound 131, N-(2-ethyl-4-(6-methylpyridin-3-yl)phenyl)-N,1-dimethyl-1H-imidazo[4,5-c]pyridin-6-amine] | > 1000 | 101 to 500 | – | – | 0.01 to 100 | 501 to 1000 | –
CCc1cc(-c2cnc(N(C)C)nc2)ccc1N(C)c1cc2c(cn1)ncn2C [Compound 129, N-(4-(2-(dimethylamino)pyrimidin-5-yl)-2-ethylphenyl)-N,1-dimethyl-1H-imidazo[4,5-c]pyridin-6-amine] | > 1000 | 101 to 500 | – | – | 0.01 to 100 | > 1000 | –
CCc1cc(C2=CCN(C(=O)Nc3nncs3)CC2)ccc1N(C)c1cc2c(cn1)ncn2C [Compound 234, 4-(3-Ethyl-4-(methyl(1-methyl-1H-imidazo[4,5-c]pyridin-6-yl)amino)phenyl)-N-(1,3,4-thiadiazol-5-yl)-5,6-dihydropyridine-1(2H)-carboxamide] | 0.01 to 100 | 0.01 to 100 | – | – | 0.01 to 100 | – | 1 to 500
CCNC(=O)N1CC=C(c2ccc(N(C)c3cc4c(cn3)ncn4C)c(CC)c2)CC1 [Compound 172, N-ethyl-4-(3-ethyl-4-(methyl(1-methyl-1H-imidazo[4,5-c]pyridin-6-yl)amino)phenyl)-5,6-dihydropyridine-1(2H)-carboxamide] | 101 to 500 | 0.01 to 100 | – | – | 0.01 to 100 | 1 to 500 | –
